The numbers were not newly measured in patent US20080167327A1, “HYDRATES OF ERLOTINIB HYDROCHLORIDE” (priority 2006, published 2008), which cites them from elsewhere.

Counter-ions that a name gives are not always drawn.

The conditions of data set [1]: compared with Form A; disclosed in WO 01/34574.
The conditions of data set [2]: compared with Form B; disclosed in WO 2004/072049.

Consider `C#Cc1cccc(Nc2ncnc3cc(OCCOC)c(OCCOC)cc23)c1` [Form B, erlotinib hydrochloride], for which the thermodynamic stability result in data set [1] is recorded as “thermodynamically more stable than Form A”.

On to `C#Cc1cccc(Nc2ncnc3cc(OCCOC)c(OCCOC)cc23)c1` [Form E, erlotinib hydrochloride], for which the solubility result in data set [2] was “higher solubility”.
